# From patent US20220074923A1, “METHODS OF IDENTIFYING PARKIN-MEDIATED MITOPHAGY ACTIVATING AGENTS” (THE GOVERNING COUNCIL OF THE UNIVERSITY OF TORONTO, priority 2018, published 2022)
# Read-outs that look alike come from different tables or passages of the source.
# Experiments:
# HEK293 GFP Parkin cells = assay: Immunoblotting of mitochondrial protein degradation after CCCP; type: cell-based
# Protocol: (a) HEK293 GFP Parkin cells were treated with varying doses of SR3677 for 2 hours prior to induction of mitophagy with 10 μM CCCP for one hour. The percentage of cells with mitochondrial Parkin increased in a dose-dependent manner. […] Cell lysates were harvested, proteins were separated by SDS-PAGE and immunoblotting was performed with anti-Mfn2 and anti-actin antibodies. (c) Ponceau VDAC1 levels in each sample normalized to Ponceau staining. (d) Mfn2/actin levels in CCCP treated cells. (e) Densitometry analysis was performed to quantify Mfn2 and VDAC1 levels in each sample (n=4 independent experiments).
# HEK293 GFP Parkin cells co-treated with 0.5 μM SR3677 or DMSO and 10 μM CCCP for the indicated time (hours). Cell lysates were separated by SDS-PAGE and immunoblotting was performed to assess turnover of IMM/matrix substrates (A) ATP5A, (B) UQCRC2 and (C) COXIV. Densitometry analysis was performed. Protein levels were normalized to Ponceau. Data is expressed as mean±s.e.m (n=6, 7 and 8 for a, b and c, respectively. 4) P-values were determined by paired student's t-test, *P<0.05.
# Lysates were harvested using lysis buffer (0.1M Tris HCl, 0.01% SDS, pH 9) with 1× protease inhibitor cocktail (BioShop, PIC002.1). Lysates were then heated at 95° C. for 20 minutes with vortexing performed at 5-minute intervals. The BCA assay (Pierce, 23227) was performed to determine protein concentration, to standardize protein loading across samples to be compared. 12% SDS-PAGE gels were used to run samples to be analyzed for LC3 conversation and for Tom20 and 10% gels were run for all other samples. Transfer of proteins onto PVDF membrane (Immobilon, IPVH00010) was performed at 110V for 80 minutes or at 36V for 8 hours. Membranes were blocked with 5% skim milk in TBST (1×TBS, 0.1% Tween-20 [BioShop, 1M23298]) for 30 minutes prior to incubation in primary antibodies at a dilution of 1:1000 for all antibodies except anti-ROCK2 and anti-LC3, which were used at a dilution of 1:5000. Visualization of proteins was performed using ECL (BioRad, 11705062).
# Densitometry was performed by normalizing bands corresponding to the protein of interest to a loading control such as actin using ImageLab 6.0 software (BioRad).
# [1] = tested on: HeLa cells stably expressing GFP parkin and mito-DsRed; assay: Mitochondrial clearance assay; type: cell-based
# Protocol: HeLa cells stably expressing GFP parkin and mito-DsRed were seeded into 12-well plates containing coverslips and allowed to adhere overnight. Cells were then treated with DMSO or 0.5 μM SR3677 for 2 hours prior to addition of 10 μM CCCP for 24 hours. Cells were then washed with PBS, fixed with 4% PFA and washed with PBS again prior to the mounting of coverslips onto glass slides. Mitochondrial clearance was quantified by counting the number of cells in each treatment to retain mito-DsRed signal. 3 independent trials were performed with at least 50 cells quantified per trial.
# SH-SY5Y cells = assay: Cell viability by crystal violet staining; type: cell-based; settings: 0.5 μM pre-treatment, 10 μM CCCP 24 hours
# Protocol: A) SH-SY5Y cells were pre-treated with either DMSO or 0.5 μM SR3677 prior to addition of either DMSO or 10 μM CCCP for 24 hours. Following treatment, cells were washed, fixed with 4% paraformaldehyde and stained with crystal violet dye. B) The OD at 550 nm was measured to assess crystal violet staining.
# To determine whether these findings could be translated into dopaminergic neurons, the study was continued in the dopaminergic neuroblastoma SH-SY5Y cell line. Parkin undergoes a similar CCCP-dependent subcellular transition from cytosol to mitochondria in these cells^12. First, whether the viability of these cells would be improved by SR3677 was investigated. Initially, experiments were conducted using crystal violet staining as an indicator of cell viability. […] Next, SH-SY5Y cells were differentiated into a more neuron-like population according to protocols previously described^10 and ATP levels were measured. […] Varying concentrations of SR3677 were co-administered alongside the PD-causing toxin paraquat.
# Drosophila = type: in vivo
# Protocol: Fresh vials containing standard fly food supplemented with the indicated treatments were changed out every 2 days. The number of flies surviving each day was counted and log-rank tests were performed to determine statistical significance. 20 flies per treatment, n=5 (c) The climbing ability of flies treated as described in (a and bin) was assessed 4 days following initial administration of treatments. The number of flies to climb beyond 9.5 cm every 10 seconds was assessed. The percentage of flies in each treatment to cross this line was determined. The climbing ability of each treatment was normalized to the control group treated with water only. 20 flies per treatment, n=5. (d) The climbing ability of UAS-park^RNAi and ddc-GAL4>UAS-park^RNAi flies fed either paraquat or paraquat in combination with SR3677. 20 flies per treatment, n=7. (e) Proteins lysates from UAS-park^RNAi or tubulin>UAS-park^RNAi whole flies were separated by SDS-PAGE. Immunoblotting with anti-Parkin and anti-actin antibody was performed. (f) The climbing ability of TH-GAL flies fed either paraquat or paraquat in combination with SR3677. (g) Survival of heteroplasmic mt:Coll^T300l flies fed fly food supplemented with water or 2 mM SR3677 and wild-type Canton(S) flies (n=3 independent experiments). (h) The climbing ability of heteroplasmic mt:Coll^T300l flies fed either water or 2 mM SR3677 for 7 days. Log-rank tests were performed to determine p-values for survival analyses (a, b, g), *P<0.05. P-values were determined by one-tailed paired student's t-test for all climbing assays (c-e, h), *P<0.05. Data is expressed as mean±s.e.m. All error bars represent s.e.m
# Male Canton(S) Drosophila were aged 7 days prior to feeding with standard fly food supplemented with water, 10 mM paraquat, 1 mM SR3677, or with combinations of these chemicals. Flies were placed into new vials containing fresh food supplemented with the treatments previously administered and 2 days later, climbing assays were performed. Flies were placed into plastic cylinder vials and tapped down, so all flies fell to the bottom. The number of flies to climb beyond 12.5 cm was counted every 10 s and values are represented as the percentage of total flies in each treatment group.
# ROCK2 = ROCK2 (Homo sapiens, UniProt O75116); settings: biochemical and cell-based assays, previous studies; cited from earlier work
# Chain of ROCK2 (O75116 whole entry): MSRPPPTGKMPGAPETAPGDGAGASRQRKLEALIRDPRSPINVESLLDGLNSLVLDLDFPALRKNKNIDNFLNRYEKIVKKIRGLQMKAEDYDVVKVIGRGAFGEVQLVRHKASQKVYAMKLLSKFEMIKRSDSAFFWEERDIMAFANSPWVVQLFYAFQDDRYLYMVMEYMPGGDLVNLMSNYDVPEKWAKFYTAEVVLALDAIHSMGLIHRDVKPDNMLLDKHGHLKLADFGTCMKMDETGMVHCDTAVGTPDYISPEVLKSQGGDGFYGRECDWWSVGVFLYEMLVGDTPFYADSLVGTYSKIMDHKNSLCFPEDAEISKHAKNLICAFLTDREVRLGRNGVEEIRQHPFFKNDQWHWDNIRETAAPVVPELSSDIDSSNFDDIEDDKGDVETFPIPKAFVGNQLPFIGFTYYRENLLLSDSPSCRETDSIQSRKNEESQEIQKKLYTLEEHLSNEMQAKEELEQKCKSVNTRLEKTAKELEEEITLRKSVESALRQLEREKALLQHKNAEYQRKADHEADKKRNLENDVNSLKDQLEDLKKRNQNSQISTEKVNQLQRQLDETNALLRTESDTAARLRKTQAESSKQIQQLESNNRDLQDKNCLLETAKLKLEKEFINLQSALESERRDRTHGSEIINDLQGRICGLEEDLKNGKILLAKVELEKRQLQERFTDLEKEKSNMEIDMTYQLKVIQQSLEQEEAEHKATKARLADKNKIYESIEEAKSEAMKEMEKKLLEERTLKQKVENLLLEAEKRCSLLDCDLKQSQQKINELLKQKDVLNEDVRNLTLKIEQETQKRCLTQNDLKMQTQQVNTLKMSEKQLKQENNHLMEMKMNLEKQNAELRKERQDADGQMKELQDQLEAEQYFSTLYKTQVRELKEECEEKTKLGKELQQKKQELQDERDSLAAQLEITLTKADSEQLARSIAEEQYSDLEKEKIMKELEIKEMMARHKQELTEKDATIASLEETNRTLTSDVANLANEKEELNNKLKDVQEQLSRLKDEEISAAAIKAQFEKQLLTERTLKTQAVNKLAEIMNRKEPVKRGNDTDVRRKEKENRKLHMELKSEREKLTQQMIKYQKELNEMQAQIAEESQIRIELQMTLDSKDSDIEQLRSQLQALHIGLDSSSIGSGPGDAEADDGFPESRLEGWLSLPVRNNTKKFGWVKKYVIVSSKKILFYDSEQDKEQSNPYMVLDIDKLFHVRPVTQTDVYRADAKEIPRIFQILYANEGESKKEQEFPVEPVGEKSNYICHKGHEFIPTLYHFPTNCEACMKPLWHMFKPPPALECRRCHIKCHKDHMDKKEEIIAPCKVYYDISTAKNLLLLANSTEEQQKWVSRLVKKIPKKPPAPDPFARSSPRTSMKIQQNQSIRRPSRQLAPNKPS
# [2] = in vivo; cited from earlier work
# [3] = 0.5 μM co-treated with 10 μM CCCP
smiles,measurement,setting,value
CN(C)CCOc1cc(-c2cn[nH]c2)ccc1NC(=O)[C@@H]1COc2ccccc2O1 [SR3677],degradation of ATP5A,HEK293 GFP Parkin cells; [3],increased the degradation
same,degradation of COXIV,HEK293 GFP Parkin cells; [3],increased the degradation
same,degradation of UQCRC2,HEK293 GFP Parkin cells; [3],enhanced
same,fold lower concentration than Y39983 for comparable Mfn2 degradation,HEK293 GFP Parkin cells; 0.5 μM vs 10 μM,20 fold
same,turnover of VDAC1,"HEK293 GFP Parkin cells; 0.5 μM, 10 μM CCCP",increased the turnover
same,concentration administered to enhance Mfn2 degradation,HEK293 GFP Parkin cells; 10 μM CCCP,0.5 µM
same,Mfn2 degradation following CCCP,"HEK293 GFP Parkin cells; 2 h pre-treatment, 10 μM CCCP, Y39983 10 μM, SR3677 0.5 μM",Increased degradation of Mfn2
same,mitochondrial mass without CCCP,"[1]; 0.5 μM SR3677, 24 hour DMSO treatment",retained mitochondrial mass
same,% of cells that retained mito-DsRed,"[1]; pre-treated with 0.5 μM SR3677, 24 hour 10 μM CCCP",28±8.21%
same,crystal violet staining (OD),SH-SY5Y cells,increased crystal violet
same,climbing ability of paraquat-treated flies,"Drosophila; Canton(S), 1 mM SR3677 with 10 mM paraquat",restores climbing ability
same,climbing ability with paraquat,"Drosophila; TH-GAL4, UAS-rok^RNAi flies",No further improvement to climbing ability
same,climbing ability with paraquat,Drosophila; UAS-park^RNAi flies,improved
same,paraquat-induced climbing defects,Drosophila; ddc-GAL4>UAS-park^RNAi flies,no improvement
same,ROCK2 inhibition,ROCK2,selectively inhibits ROCK2
same,bioavailability,[2],poor bioavailability
